Measured values reported in ChEMBL document CHEMBL3045519, “Selective Herbicidal Activity of 3, 5-Dichloropyridyloxy-phenoxypropionamidoxyacetic Acid Derivatives between Wheat and Wild Oat” (J Pestic Sci, 1996).
Active and inactive are the calls of the source. The rule behind the calls is not given here.

What was measured:
Triticum aestivum [1] = experiment: Phytotoxicity against Triticum aestivum (wheat) under greenhouse conditions at 5 g/a at 1.5-leaf stage measured after 3 weeks by pot test; format: organism-based; conditions: in vivo, 504 h
Triticum aestivum [2] = experiment: Phytotoxicity against Triticum aestivum (wheat) under greenhouse conditions at 10 g/a at 1.5-leaf stage measured after 3 weeks by pot test; format: organism-based; conditions: in vivo, 504 h
Triticum aestivum [3] = experiment: Phytotoxicity against Triticum aestivum (wheat) under greenhouse conditions at 2.5 g/a at 1.5-leaf stage measured after 3 weeks by pot test; format: organism-based; conditions: in vivo, 504 h
Triticum aestivum [4] = experiment: Phytotoxicity against Triticum aestivum (wheat) under greenhouse conditions at 1.3 g/a at 1.5-leaf stage measured after 3 weeks by pot test; format: organism-based; conditions: in vivo, 504 h
Triticum aestivum [5] = experiment: Phytotoxicity against Triticum aestivum (wheat) under greenhouse conditions at 0.6 g/a at 1.5-leaf stage measured after 3 weeks by pot test; format: organism-based; conditions: in vivo, 504 h
Avena fatua [6] = experiment: Post-emergence herbicidal activity against Avena fatua under greenhouse conditions at 10 g/a at 1.5-leaf stage measured after 3 weeks by pot test; format: functional, organism-based
Avena fatua [7] = experiment: Post-emergence herbicidal activity against Avena fatua under greenhouse conditions at 5 g/a at 1.5-leaf stage measured after 3 weeks by pot test; format: functional, organism-based
Avena fatua [8] = experiment: Post-emergence herbicidal activity against Avena fatua under greenhouse conditions at 2.5 g/a at 1.5-leaf stage measured after 3 weeks by pot test; format: functional, organism-based
Avena fatua [9] = experiment: Post-emergence herbicidal activity against Avena fatua under greenhouse conditions at 1.3 g/a at 1.5-leaf stage measured after 3 weeks by pot test; format: functional, organism-based
Avena fatua [10] = experiment: Post-emergence herbicidal activity against Avena fatua under greenhouse conditions at 0.6 g/a at 1.5-leaf stage measured after 3 weeks by pot test; format: functional, organism-based
Avena fatua [11] = experiment: Post-emergence herbicidal activity against Avena fatua under greenhouse conditions compound treated at 1.5-leaf stage measured after 3 weeks by pot test relative to diclofop-methyl; format: functional
Triticum aestivum [12] = experiment: Phytotoxicity against Triticum aestivum (wheat) under greenhouse conditions at 0.3 g/a at 1.5-leaf stage measured after 3 weeks by pot test; format: organism-based; conditions: in vivo, 504 h
Avena fatua [13] = experiment: Post-emergence herbicidal activity against Avena fatua under greenhouse conditions at 0.3 g/a at 1.5-leaf stage measured after 3 weeks by pot test; format: functional, organism-based
Triticum aestivum [14] = experiment: Phytotoxicity against Triticum aestivum (wheat) under greenhouse conditions at 40 g/a at 1.5-leaf stage measured after 3 weeks by pot test; format: organism-based; conditions: in vivo, 504 h
Avena fatua [15] = experiment: Post-emergence herbicidal activity against Avena fatua under greenhouse conditions at 40 g/a at 1.5-leaf stage measured after 3 weeks by pot test; format: functional, organism-based

| SMILES | Activity (Triticum aestivum [1]) | Activity (Triticum aestivum [2]) | Activity (Triticum aestivum [3]) | Activity (Triticum aestivum [4]) | Activity (Triticum aestivum [5]) | Activity (Avena fatua [6]) | Activity (Avena fatua [7]) | Activity (Avena fatua [8]) | Activity (Avena fatua [9]) | Activity (Avena fatua [10]) | Ratio (Avena fatua [11]) | Activity (Triticum aestivum [12]) | Activity (Avena fatua [13]) | Activity (Triticum aestivum [14]) | Activity (Avena fatua [15]) |
| --- | --- | --- | --- | --- | --- | --- | --- | --- | --- | --- | --- | --- | --- | --- | --- |
| COC(=O)C(C)Oc1ccc(Oc2ccc(Cl)cc2Cl)cc1 (configuration not stated) [DICLOFOP-METHYL] | Non-toxic | Non-toxic | Non-toxic | Non-toxic | Non-toxic | Active | Active | Active | inactive | inactive | – | – | – | – | – |
| CC(Oc1ccc(Oc2ccc(Cl)cc2Cl)cc1)C(=O)O (configuration not stated) [DICLOFOP] | Non-toxic | Non-toxic | Non-toxic | Non-toxic | – | Active | Active | Active | Active | – | – | – | – | – | – |
| CCNC(=O)CNC(=O)C(C)Oc1ccc(Oc2ncc(Cl)cc2Cl)cc1 (configuration not stated) | Non-toxic | – | Non-toxic | Non-toxic | Non-toxic | – | Active | Active | Active | Active | 2 | Non-toxic | Active | – | – |
| CC(Oc1ccc(Oc2ncc(Cl)cc2Cl)cc1)C(=O)N(C)C (configuration not stated) | – | – | – | – | – | – | – | – | – | – | – | – | – | Non-toxic | inactive |
| CC(Oc1ccc(Oc2ccc(Cl)cc2Cl)cc1)C(=O)NOCC(=O)O (configuration not stated) | – | – | – | – | – | – | – | – | – | – | – | – | – | Non-toxic | inactive |
| CCCCNC(=O)CNC(=O)C(C)Oc1ccc(Oc2ncc(Cl)cc2Cl)cc1 (configuration not stated) | – | – | Toxic | Non-toxic | Non-toxic | – | – | Active | Active | Active | – | Non-toxic | Active | – | – |
| CC(Oc1ccc(Oc2ncc(Cl)cc2Cl)cc1)C(=O)N(C)OCC(=O)O (configuration not stated) | – | – | Non-toxic | Non-toxic | Non-toxic | – | – | Active | Active | inactive | – | Non-toxic | inactive | – | – |
| CCOC(=O)CNC(=O)C(C)Oc1ccc(Oc2ncc(Cl)cc2Cl)cc1 (configuration not stated) | – | – | Toxic | Non-toxic | Non-toxic | – | – | Active | Active | Active | – | Non-toxic | Active | – | – |
